Assay results reported in US20260108455A1, “DEVICE FOR SUSTAINED CONTROLLED RELEASE OF A […] ACTIVE SUBSTANCE AND USES THEREOF” (Hylomorph AG, priority 2022, published 2026).
Counter-ions that a name gives are not always drawn.

Assays:
[1] = Drug elution testing (in vitro release) of PLGA films; format: physicochemical; conditions: all prototypes, phase 2
Description: The main goals are summarized below: • 1. Prepare placebo films with multiple grades of PLGA polymers (Table 1) using solvent casting method. Evaluate both single and dual layer film designs. • 2. […] Create HPLC assay and drug elution method based on provided information. Optimize method for use in formulation development.

[2] = Solubility in water (distilled and deionized water); format: physicochemical; conditions: 20 °C, pH 7, water, neutral pH, i.e. pH of 7 at room temperature
Procedure: Solubility is a chemical property of a molecule in a specific solvent which depends on the chemistry of the two and on the environmental conditions of temperature and pH. […] This at room temperature (20 deg) or body temperature (37 deg) and a pH of 7. Solubility is measured in distilled and deionized water and is given in mg/mL.

SMILES	degradation during elution testing [1]	solubility [2] [µg/mL]
CN(C)c1ccc(O)c2c1C[C@H]1C[C@H]3[C@H](N(C)C)C(O)=C(C(N)=O)C(=O)[C@@]3(O)C(O)=C1C2=O [Minocycline HCl, Minocycline Hydrochloride]	Significant degradation	
CO[C@H]1/C=C/O[C@@]2(C)Oc3c(C)c(O)c4c(O)c(c(/C=N/N5CCN(C)CC5)c(O)c4c3C2=O)NC(=O)/C(C)=C\C=C\[C@H](C)[C@H](O)[C@@H](C)[C@@H](O)[C@@H](C)[C@H](OC(C)=O)[C@@H]1C [Rifampicin]		≤ 2500
